This note sets out measurements from patent publication US9120774B2 (University of Kansas, priority 2009, dated 2015).

The structures appear in SMILES notation. Read-outs that look alike come from different tables or passages of the source. A value given as a limit tells only on which side of the number the result lay.

Holding throughout (type): cell-based
The subject of assay [1] is SkBr3 (Her2 overexpressing breast cancer cells). In words: Anti-proliferation activity against SkBr3 cells (MTS/PMS). In short, it runs like this: (§1)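 Viability after 72 h compound treatment (1% DMSO final, 37° C., 5% CO2) measured by MTS/PMS; plating density 2000 cells/well with overnight attachment.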
Assay [2] has as its system MCF-7 (estrogen receptor positive breast cancer cells). In words: Anti-proliferation activity against MCF-7 cells (MTS/PMS). In a few lines:
as §1

In assay [3] the test system is LN3 (metastatic human prostate cancer cells). As to the kind of experiment: Anti-proliferation activity against LN3 cells (MTS/PMS). The method, then: (§2) Cells were maintained in a 1:1 mixture of Advanced DMEM/F12 (Gibco) supplemented with non-essential amino acids, L-glutamine (2 mM), streptomycin (500 μg/mL), penicillin (100 units/mL), and 10% FBS. Cells were grown to confluence in a humidified atmosphere (37° C., 5% CO2), seeded (2000/well, 100 μL) in 96-well plates, and allowed to attach overnight. Compound or GDA at varying concentrations in DMSO (1% DMSO final concentration) was added, and cells were returned to the incubator for 72 hours. At 72 hours, the number of viable cells was determined using an MTS/PMS cell proliferation kit (Promega) per the manufacturer's instructions. Cells incubated in 1% DMSO were used at 100% proliferation, and values were adjusted accordingly. IC50 values were calculated from separate experiments performed in triplicate using GraphPad Prism.

In assay [4] the test system is MM2 (metastatic mammary tumor cancer cells). As to the kind of experiment: Anti-proliferation activity against MM2 cells (MTS/PMS). The protocol:
as §2

Assay [5] relates to A549 (human alveolar basal epithelial cells). In words: Anti-proliferation activity against A549 cells (MTS/PMS). The protocol: as §2
For assay [6], the system named is HCT-116 (colon cancer cells characterized by wild-type p53). As to the kind of experiment: Anti-proliferation activity against HCT-116 cells. As to conditions: Homo sapiens, Table 2, n = 3.
Assay [7] has as its system PL45 (pancreatic cancer cells). In words: Anti-proliferation activity against PL45 cells. To be noted: Table 2, n = 3.
Assay [8] concerns LNCaP (androgen sensitive prostate cancer cells). As to the kind of experiment: Anti-proliferation activity against LNCaP cells. As to conditions: Homo sapiens, LNCaP; Table 2; n = 3; read-out: IC50 LNCaP. In short, it runs like this: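 Cells seeded at 2000/well in Advanced DMEM/F12 with 10% FBS and attached overnight, then given compound in 1% DMSO final for 72 h at 37 °C, 5% CO2. Viable cells by MTS/PMS read-out, normalised to 1% DMSO as 100% proliferation. IC50 from separate triplicate experiments.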

Assay [9] has as its system PC-3 (androgen independent prostate cancer cells). In words: Anti-proliferation activity against PC-3 cells. To be noted: Homo sapiens, PC-3; Table 2; n = 3; read-out: IC50 PC-3. In a few lines:
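Antiproliferative activity was tested in PC-3 androgen-independent prostate cancer cells. Cells grown at 37° C. with 5% CO2 in Advanced DMEM/F12 (1:1) containing non-essential amino acids, 2 mM L-glutamine, streptomycin, penicillin and 10% FBS were plated at 2000/well in 96-well plates. Proliferation was normalized to 1% DMSO controls, and IC50 values from triplicate experiments were fitted in GraphPad Prism.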

[10] abbreviates: Table 8, unsaturated azasugar analogues, 72 hours.
Setting [11] is: Table 9, azasugar analogues on 8-methyl coumarin, 72 hours, read-out: IC50 SKBr3.
Setting [12] is: Table 9, azasugar analogues on 8-methyl coumarin, 72 hours, read-out: IC50 MCF-7.
The mark [13] stands for this setting: Table 9, azasugar analogues on 8-methyl coumarin, 72 hours.
Setting [14] is: Homo sapiens, SK-BR-3, Table 10, azasugar analogues on 6-methoxy coumarin, 72 hours, read-out: IC50 SKBr3.
[15] abbreviates: Homo sapiens, MCF7, Table 10, azasugar analogues on 6-methoxy coumarin, 72 hours, read-out: IC50 MCF-7.
[16] abbreviates: Homo sapiens, Table 10, azasugar analogues on 6-methoxy coumarin, 72 hours.
[17] abbreviates: Table 10, azasugar analogues on 6-methoxy coumarin, 72 hours.
Setting [18] is: Homo sapiens, A549, Table 10, azasugar analogues on 6-methoxy coumarin, 72 hours.
[19] abbreviates: Homo sapiens, SK-BR-3, Table 12, aliphatic chain analogues, 72 hours, read-out: IC50 SKBr3.
Setting [20] is: Homo sapiens, MCF7, Table 12, aliphatic chain analogues, 72 hours, read-out: IC50 MCF-7.
Setting [21] is: Homo sapiens, Table 12, aliphatic chain analogues, 72 hours.
Setting [22] is: Table 12, aliphatic chain analogues, 72 hours.
Where [23] appears, read: Homo sapiens, A549, Table 12, aliphatic chain analogues, 72 hours.
Setting [24] is: Homo sapiens, SK-BR-3, Table 20, indole-2-carboxamide analogues with noviose replacements, read-out: IC50, SKBr3.
Where [25] appears, read: Homo sapiens, MCF7, Table 20, indole-2-carboxamide analogues with noviose replacements, read-out: IC50, MCF-7.
Where [26] appears, read: Homo sapiens, Table 20, indole-2-carboxamide analogues with noviose replacements.
Where [27] appears, read: Table 20, indole-2-carboxamide analogues with noviose replacements.
The mark [28] stands for this setting: Homo sapiens, A549, Table 20, indole-2-carboxamide analogues with noviose replacements.
[29] abbreviates: Table 13, various sugars on 8-methyl coumarin, 72 hours.

The IC50 is the concentration at which inhibition is half-maximal. Turning to `CO[C@@H]1[C@@H](O)[C@@H](O)[C@H](Oc2ccc3cc(NC(=O)c4ccccc4N)c(=O)oc3c2C)OC1(C)C` [18 KU-260], the IC50 worked out at 1.61 ± 0.1 µM in assay [1] (Table 8, unsaturated azasugar analogues, 72 hours, read-out: IC50 SKBr3); 1.73 µM in assay [2] (Table 8, unsaturated azasugar analogues, 72 hours, read-out: IC50 MCF-7); 4.23 µM in assay [3] (setting [10]); 4.36 µM in assay [4] (setting [10]); 1.42 µM in assay [5] (setting [10]).
On to `CO[C@@H]1[C@@H](O)[C@@H](O)[C@H](Oc2ccc3cc(NC(=O)OCc4ccccc4)c(=O)oc3c2C)OC1(C)C` [24, KU-249], for which the IC50 in assay [1] (setting [11]) was 2.91 ± 1.1 µM; in assay [2] (setting [12]), 2.07 ± 1.1 µM; in [3] (setting [13]), 6.73 µM; in assay [4] (setting [13]), 7.75 µM; in assay [5] (setting [13]), 4.07 µM.
`CO[C@@H]1[C@@H](O)[C@@H](O)[C@H](Oc2ccc3cc(NC(=O)C=Cc4ccccc4)c(=O)oc3c2C)OC1(C)C` [25, KU-254]: the IC50 in assay [1] (setting [11]) was greater than 50 µM; in assay [2] (setting [12]) it was greater than 50 µM; in assay [3] (setting [13]), 0.23 µM; in [4] (setting [13]) it was 3.42 µM.
Take `COc1ccc(C(=O)Nc2cc3ccc(O[C@@H]4OC(C)(C)[C@H](OC)[C@@H](O)[C@H]4O)c(C)c3oc2=O)cc1-c1ccccc1` [28, KU-252]: the IC50 stood at 5.41 ± 0.8 µM in assay [1] (setting [11]), 29.4 ± 8.4 µM in assay [2] (setting [12]), 0.35 µM in [3] (setting [13]) and 2.99 µM in assay [4] (setting [13]).
Regarding `COc1cccc(-c2cc(C(=O)Nc3cc4ccc(OC5CCN(C)CC5)c(OC)c4oc3=O)ccc2OC)c1` [KU-275], the IC50 came out at 0.97 ± 0.09 µM in assay [1] (Homo sapiens, SK-BR-3, Table 11, azasugar analogues on 8-methoxy coumarin, 72 hours, read-out: IC50 SKBr3); 1.39 ± 0.35 µM in assay [2] (Homo sapiens, MCF7, Table 11, azasugar analogues on 8-methoxy coumarin, 72 hours, read-out: IC50 MCF-7); 4.75 µM in assay [3] (Homo sapiens, Table 11, azasugar analogues on 8-methoxy coumarin, 72 hours); 3.71 µM in [4] (Table 11, azasugar analogues on 8-methoxy coumarin, 72 hours); 3.06 µM in [5] (Homo sapiens, A549, Table 11, azasugar analogues on 8-methoxy coumarin, 72 hours).
As to `COc1cccc(-c2cc(C(=O)Nc3cc4cc(OC)c(OC5CCCN(C)C5)c(C)c4oc3=O)ccc2OC)c1` (stereo not drawn) [KU-281], the IC50 in [1] (setting [14]) came to 1.49 ± 0.07 µM; in assay [2] (setting [15]), 1.41 ± 0.16 µM; in assay [3] (setting [16]) it was 6.63 µM; in [4] (setting [17]), 4.47 µM; in assay [5] (setting [18]), 3.19 µM.
The matching figures for `COc1cccc(-c2cc(C(=O)Nc3cc4cc(OC)c(OC5CCNCC5)c(C)c4oc3=O)ccc2OC)c1` [KU-286]: 1.2 ± 0.1 µM, 2.82 ± 1.38 µM, 5.27 µM, 4.02 µM and 3.5 µM.
In the case of `COc1cccc(-c2cc(C(=O)Nc3cc4cc(OC)c(OC5CCN(C)CC5)c(C)c4oc3=O)ccc2OC)c1` [KU-287], the IC50 in assay [1] (setting [14]) came to 1.19 ± 0.21 µM; in assay [2] (setting [15]), 1.79 ± 0.11 µM; in assay [3] (setting [16]), 4.07 µM; in assay [4] (setting [17]), 2.84 µM; in assay [5] (setting [18]) it was 1.99 µM.
On to `COc1cccc(-c2cc(C(=O)Nc3cc4ccc(OCCN(C)C)c(OC)c4oc3=O)ccc2OC)c1` [KU-292], for which the IC50 in [1] (setting [19]) came to 1.77 ± 0.15 µM; in assay [2] (setting [20]), 3.08 ± 0.12 µM; in assay [3] (setting [21]), 5.22 µM; in [4] (setting [22]), 6.2 µM; in [5] (setting [23]), 8.8 µM.
Taken in the same sequence, the figures for `COc1cccc(-c2cc(C(=O)Nc3cc4cc(OC)c(OCCN(C)C)c(C)c4oc3=O)ccc2OC)c1` [KU-294] were 1.42 ± 0.26 µM, 1.29 ± 0.21 µM, 4.71 µM, 4.87 µM and 2.21 µM.
As to `COc1cccc(-c2cc(C(=O)Nc3cc4ccc(OCCCN(C)C)c(C)c4oc3=O)ccc2OC)c1` [KU-317], the IC50 in assay [1] (setting [19]) turned out to be 0.6 ± 0.01 µM; in assay [2] (setting [20]), 0.5 ± 0.04 µM; in assay [3] (setting [21]) it was 37.5 µM; in assay [4] (setting [22]) it was 12.8 µM; in assay [5] (setting [23]) it was 13.1 µM.
Taken in the same sequence, the figures for `COc1cccc(-c2cc(C(=O)Nc3cc4ccc(OCCCN(C)C)c(OC)c4oc3=O)ccc2OC)c1` [KU-319] were 0.91 ± 0.17 µM, 1.53 ± 0.18 µM, 8.03 µM, 4.08 µM and 3.43 µM.
With `Cc1c(OC2CCN(C)CC2)ccc2cc(NC(=O)c3cc4ccccc4[nH]3)c(=O)oc12` [KU-361], the IC50 is 0.48 ± 0.11 µM in [1] (setting [24]); 0.57 ± 0.04 µM in [2] (setting [25]); 11.8 ± 0.68 µM in assay [3] (setting [26]); 11.4 ± 6.56 µM in assay [4] (setting [27]); 3.91 µM in assay [5] (setting [28]).
Taken in the same sequence, the figures for `COc1cc2cc(NC(=O)c3cc4ccccc4[nH]3)c(=O)oc2c(C)c1OC1CCN(C)CC1` [KU-363] were 0.11 ± 0.01 µM, 0.52 ± 0.05 µM, 1.47 ± 0.66 µM, 0.87 ± 0.57 µM and 0.59 µM.
Taken in the same sequence, the figures for `COc1cc2cc(NC(=O)c3cc4ccccc4[nH]3)c(=O)oc2c(C)c1OC1CCCN(C)C1` (stereo not drawn) [KU-366] were 0.15 ± 0.06 µM, 0.69 ± 0.12 µM, 14.8 µM, 42.8 µM and greater than 100 µM.
Turning to `CO[C@@H]1[C@@H](O)[C@@H](O)[C@H](Oc2ccc3cc(NC(=O)c4cccc(N)c4)c(=O)oc3c2C)OC1(C)C` [compound 19, 3-Amino-N-(7-((2R,3R,4S,5R)-3,4-dihydroxy-5-methoxy-6,6-dimethyltetrahydro-2H-pyran-2-yloxy)-8-methyl-2-oxo-2H-chromen-3-yl)benzamide], the IC50 is 61.4 ± 4.7 µM in [1] (Homo sapiens, SK-BR-3, Table 2, n = 3, read-out: IC50 SkBr3); 12.5 ± 0.7 µM in [1] (Table 13, various sugars on 8-methyl coumarin, 72 hours, read-out: IC50 SKBr3); 30.1 ± 3.4 µM in assay [2] (Homo sapiens, MCF7, Table 2, n = 3, read-out: IC50 MCF-7); 37.2 ± 2.1 µM in assay [2] (Table 13, various sugars on 8-methyl coumarin, 72 hours, read-out: IC50 MCF7); 21.2 ± 2.2 µM in [6]; 12.5 ± 0.9 µM in [7]. Besides, the IC50 is 24.8 ± 9.7 µM in assay [8]; 14.7 ± 2.6 µM in [9]; 3.65 µM in assay [3] (setting [29]); 30.6 µM in assay [4] (setting [29]); greater than 100 µM in [5] (setting [29]).
